According to patent US20240180883A1, “TREATMENT OF MIGRAINE” (Allergan Pharmaceuticals International Limited, priority 2020, published 2024):
“And” between values parts separate entries of the source, which are not always exact repeats. Equal entries are not always repeated. “Also recorded” adds a separate entry of the source. Where two headings read alike, the source gives them in different places.

Columns and labels:
Format in all cases: in vivo, human
[1] = Phase 1 hepatic impairment PK study, single 100 mg dose; settings: 100 mg single oral dose; for AUC(0-inf) / AUC(0-t) / Cmax / Tmax / Vd/F / half-life: both sexes, human, plasma, po, 100 mg; for Tmax: read-out: Tmax, median (min-max); for Vd/F: read-out: Vz/F, mean ±SD; for half-life: read-out: t1/2, mean ±SD (converted)
From the text: The study was intended to enroll 24 male and female participants with hepatic impairment (8 mildly impaired, 8 moderately impaired, and 8 severely impaired) and 8 healthy male and female participants with normal hepatic function, aged 18 through 75 years, who were matched closely to the age, weight, and gender of the hepatically impaired groups.
Participants with hepatic impairment were categorized according to the Child-Pugh classification. Participants with moderate hepatic impairment (Child-Pugh B classification) were not enrolled until 4 patients with mild hepatic impairment (Child-Pugh A classification) had completed the study; participants with severe hepatic impairment (Child-Pugh C classification) were not to be enrolled until 4 patients with moderate hepatic impairment had completed the study. […] Healthy participants with normal hepatic function were recruited after participants with hepatic impairment had been enrolled in the study, in order to match them as closely as possible to the hepatically impaired participants with respect to age, weight, and gender. Participants with normal hepatic function were matched specifically according to age, not to exceed 5 years between the means of the normal group and the 3 hepatically impaired groups. Weight range deviated<20% between the means of the normal group and the 3 hepatically impaired groups; and gender, as much as possible to match the ratio of the normal hepatic function group to the 3 hepatically impaired groups.
Fasting continued for 4 hours after dosing. Because minimal to no accumulation was expected after once daily repeated dosing for ubrogepant, a single-dose study was considered adequate to satisfy the objectives of the present study.
Sampling was also done at the following times for plasma protein binding determinations: Day 1 at 0 hour (predose) and 2 hours post dose.

[2] = Hepatic impairment study: adverse events
From the text: Participants were queried regarding any AEs or SAEs at the time of each vital sign assessment, as well as at each visit through to the follow-up visit.
Criteria for potential Hy's Law cases were as follows: AST or ALT≥3×ULN and Total Bilirubin≥2×ULN and Alkaline phosphatase<2×ULN.

[3] = Study A: safety
Method: Study A (verapamil and ketoconazole) comprised 3 treatment periods. […] Ubrogepant was administered under fasted conditions.

[4] = 100 mg single oral dose, all 28 participants
[5] = 100 mg single oral dose, mild hepatic impairment
[6] = 100 mg single oral dose, moderate hepatic impairment
[7] = 100 mg single oral dose, normal hepatic function
[8] = 100 mg single oral dose, severe hepatic impairment

Structure (SMILES): C[C@@H]1[C@H](c2ccccc2)C[C@H](NC(=O)c2cnc3c(c2)C[C@@]2(C3)C(=O)Nc3ncccc32)C(=O)N1CC(F)(F)F [ubrogepant, (3′S)-N-((3S,5S,6R)-6-methyl-2-oxo-5-phenyl-1-(2,2,2-trifluoroethyl)piperidin-3-yl)-2′-oxo-1′,2′,5,7-etrahydrospiro[cyclopenta[b]pyridine-6,3′-pyrrolo[2,3-b]pyridine]-3-carboxamide]
- CL/F, mean ±SD ([1]; mild hepatic impairment): 66.38 ± 26.15 L/h
- AUC0-∞ (exposure) higher than in normal hepatic function ([1]; moderate hepatic impairment): 52% and 50%
- CL/F, mean ±SD ([1]; moderate hepatic impairment): 49.78 ± 23.84 L/h
- Cmax higher than in normal hepatic function ([1]; moderate hepatic impairment): 25%
- CL/F, mean ±SD ([1]; normal hepatic function): 69.01 ± 23.54 L/h
- AUC0-∞ (exposure) higher than in normal hepatic function ([1]; severe hepatic impairment): 115%
- CL/F, mean ±SD ([1]; severe hepatic impairment): 31.23 ± 7.49 L/h
- Cmax higher than in normal hepatic function ([1]; severe hepatic impairment): 40%
- AUC(0-inf) ([1]; mild hepatic impairment, read-out: AUC0-inf, mean ±SD): 1760 ± 775 ng·h/mL
- AUC(0-t) ([1]; mild hepatic impairment, read-out: AUC0-t, mean ±SD): 1750 ± 767 ng·h/mL
- Cmax ([1]; mild hepatic impairment, read-out: Cmax, mean ±SD): 411 ± 190 ng/mL
- Tmax ([1]; mild hepatic impairment): 1.5 h
- Vd/F ([1]; mild hepatic impairment): 559 ± 358 L
- half-life ([1]; mild hepatic impairment): 6.56 ± 5.93 h
- AUC(0-t) ([1]; mild-impaired, read-out: Geometric LSM AUC0-t, Test): 1610 ng·h/mL
- AUC(0-inf) ([1]; mild-impaired, read-out: Geometric LSM AUC0-∞, Test): 1630 ng·h/mL
- Cmax ([1]; mild-impaired, read-out: Geometric LSM Cmax, Test): 375 ng/mL
- AUC(0-inf) ([1]; moderate hepatic impairment, read-out: AUC0-inf, mean ±SD): 2820 ± 2060 ng·h/mL
- AUC(0-t) ([1]; moderate hepatic impairment, read-out: AUC0-t, mean ±SD): 2780 ± 2020 ng·h/mL
- Cmax ([1]; moderate hepatic impairment, read-out: Cmax, mean ±SD): 480 ± 189 ng/mL
- Tmax ([1]; moderate hepatic impairment): 2 h
- Vd/F ([1]; moderate hepatic impairment): 365 ± 130 L
- half-life ([1]; moderate hepatic impairment): 5.95 ± 2.68 h
- AUC(0-t) ([1]; moderate-impaired, read-out: Geometric LSM AUC0-t, Test): 2300 ng·h/mL
- AUC(0-inf) ([1]; moderate-impaired, read-out: Geometric LSM AUC0-∞, Test): 2320 ng·h/mL
- Cmax ([1]; moderate-impaired, read-out: Geometric LSM Cmax, Test): 449 ng/mL
- AUC(0-inf) ([1]; normal hepatic function, read-out: AUC0-inf, mean ±SD): 1600 ± 533 ng·h/mL
- AUC(0-t) ([1]; normal hepatic function, read-out: AUC0-t, mean ±SD): 1590 ± 530 ng·h/mL
- Cmax ([1]; normal hepatic function, read-out: Cmax, mean ±SD): 406 ± 219 ng/mL
- AUC(0-t) ([1]; normal hepatic function, read-out: Geometric LSM AUC0-t, Reference): 1510 ng·h/mL
- AUC(0-inf) ([1]; normal hepatic function, read-out: Geometric LSM AUC0-∞, Reference): 1520 ng·h/mL
- Cmax ([1]; normal hepatic function, read-out: Geometric LSM Cmax, Reference): 360 ng/mL
- Tmax ([1]; normal hepatic function): 1.75 h
- Vd/F ([1]; normal hepatic function): 533 ± 320 L
- half-life ([1]; normal hepatic function): 5.6 ± 3.68 h
- AUC(0-inf) ([1]; severe hepatic impairment, read-out: AUC0-inf, mean ±SD): 3330 ± 705 ng·h/mL
- AUC(0-t) ([1]; severe hepatic impairment, read-out: AUC0-t, mean ±SD): 3310 ± 704 ng·h/mL
- Cmax ([1]; severe hepatic impairment, read-out: Cmax, mean ±SD): 509 ± 75.8 ng/mL
- Tmax ([1]; severe hepatic impairment): 1.5 h
- Vd/F ([1]; severe hepatic impairment): 248 ± 29.9 L
- half-life ([1]; severe hepatic impairment): 5.62 ± 0.62 h
- AUC(0-t) ([1]; severe-impaired, read-out: Geometric LSM AUC0-t, Test): 3250 ng·h/mL
- AUC(0-inf) ([1]; severe-impaired, read-out: Geometric LSM AUC0-∞, Test): 3270 ng·h/mL
- Cmax ([1]; severe-impaired, read-out: Geometric LSM Cmax, Test): 505 ng/mL
- changes in laboratory parameters, vital signs, or ECG measurements ([2]; 100 mg single oral dose): no clinically relevant changes in laboratory parameters, vital signs, or ECG measurements
- participants with TEAEs, overall [2, 4]: 17.9%
- participants with headache, overall [2, 4]: 2 participants
- AE leading to study discontinuation [2, 5]: 0 n (%)
- Any SAE [2, 5]: 0 n (%)
- Any TEAE [2, 5]: 3 (37.5) n (%)
- Any treatment-related TEAE [2, 5]: 2 (25.0) n (%)
- Deaths [2, 5]: 0 n (%)
- Diarrhoea [2, 5]: 1 (12.5) n (%)
- Dizziness [2, 5]: 0 n (%)
- Dyspepsia [2, 5]: 1 (12.5) n (%)
- Gastrointestinal Disorders [2, 5]: 2 (25.0) n (%)
- Headache [2, 5]: 1 (12.5) n (%)
- Nervous System Disorders [2, 5]: 1 (12.5) n (%)
- AE leading to study discontinuation [2, 6]: 0 n (%)
- Any SAE [2, 6]: 0 n (%)
- Any TEAE [2, 6]: 2 (25.0) n (%)
- Any treatment-related TEAE [2, 6]: 2 (25.0) n (%)
- Deaths [2, 6]: 0 n (%)
- Diarrhoea [2, 6]: 0 n (%)
- Dizziness [2, 6]: 1 (12.5) n (%)
- Dyspepsia [2, 6]: 0 n (%)
- Gastrointestinal Disorders [2, 6]: 0 n (%)
- Headache [2, 6]: 1 (12.5) n (%)
- Nervous System Disorders [2, 6]: 2 (25.0) n (%)
- AE leading to study discontinuation [2, 7]: 0 n (%)
- Any SAE [2, 7]: 0 n (%)
- Any TEAE [2, 7]: 0 n (%)
- Any treatment-related TEAE [2, 7]: 0 n (%)
- Deaths [2, 7]: 0 n (%)
- Diarrhoea [2, 7]: 0 n (%)
- Dizziness [2, 7]: 0 n (%)
- Dyspepsia [2, 7]: 0 n (%)
- Gastrointestinal Disorders [2, 7]: 0 n (%)
- Headache [2, 7]: 0 n (%)
- Nervous System Disorders [2, 7]: 0 n (%)
- AE leading to study discontinuation [2, 8]: 0 n (%)
- Any SAE [2, 8]: 0 n (%)
- Any TEAE [2, 8]: 0 n (%)
- Any treatment-related TEAE [2, 8]: 0 n (%)
- Deaths [2, 8]: 0 n (%)
- Diarrhoea [2, 8]: 0 n (%)
- Dizziness [2, 8]: 0 n (%)
- Dyspepsia [2, 8]: 0 n (%)
- Gastrointestinal Disorders [2, 8]: 0 n (%)
- Headache [2, 8]: 0 n (%)
- Nervous System Disorders [2, 8]: 0 n (%)
- tolerability ([2]; healthy participants and participants with mild to severe hepatic impairment): well-tolerated
- elevations in serum transaminases or bilirubin ([3]; Study A): no participants experienced elevations in serum transaminases or bilirubin greater than or equal to 2-fold ULN
- total TEAEs reported ([3]; Study A, all treatment periods): 39 TEAEs
- safety and tolerability ([3]; single oral dose coadministered with multiple doses of verapamil or ketoconazole, healthy adults): safe and generally well tolerated; also recorded: safe and generally well-tolerated
